According to patent publication US11014911B2, “CDK2 inhibitors” (Pfizer Inc., priority 2019, dated 2021):

Legend:
GSK3β (H350L) = GSK3β (H350L) (Homo sapiens (Human), UniProt P49841); conditions: read-out: GSK3β Ki
Description: The assay was initiated with the addition of ATP, following 15 minutes pre-incubation of enzyme and inhibitor at room temperature in the reaction mixture. The reaction was stopped after 30 minutes at room temperature by the addition of 50 μL of 80 mM EDTA.

[1] = molecular target: CDK2/Cyclin E1 full length (Homo sapiens (Human), UniProt P24941); assay: CDK2/Cyclin E1 full length mobility shift assay; type: biochemical

Chain of GSK3β (H350L) (P49841 whole entry, stated change not applied): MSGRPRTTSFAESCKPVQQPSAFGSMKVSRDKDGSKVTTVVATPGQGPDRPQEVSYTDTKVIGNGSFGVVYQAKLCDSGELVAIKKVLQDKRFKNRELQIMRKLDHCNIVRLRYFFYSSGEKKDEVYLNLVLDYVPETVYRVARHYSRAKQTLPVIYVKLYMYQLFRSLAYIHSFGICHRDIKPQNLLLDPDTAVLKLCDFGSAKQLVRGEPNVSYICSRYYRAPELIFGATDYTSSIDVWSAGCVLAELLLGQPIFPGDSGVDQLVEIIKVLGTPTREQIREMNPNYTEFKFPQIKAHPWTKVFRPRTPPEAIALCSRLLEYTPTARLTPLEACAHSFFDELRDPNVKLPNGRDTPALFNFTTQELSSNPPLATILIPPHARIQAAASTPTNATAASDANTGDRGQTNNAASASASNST

Row | Structure (SMILES) | Ki (GSK3β (H350L)) | Ki [1]
1 | CC(C)(C)NC(=O)O[C@@H]1CC[C@H](c2cc(NC(=O)Cc3ccccn3)n[nH]2)C1 [Example 294, (1R,3S)-3-{3-[(pyridin-2-ylacetyl)amino]-1H-pyrazol-5-yl}cyclopentyl tert-butylcarbamate] | 32 nM | 0.62 nM
2 | CCCNC(=O)O[C@H]1CC[C@@H](c2cc(NC(=O)c3ccnn3C)n[nH]2)C1 [Example 163, (1S,3R)-3-(3-{[(1-methyl-1H-pyrazol-5-yl)carbonyl]amino}-1H-pyrazol-5-yl)cyclopentyl propylcarbamate] | 16.6 nM | 0.32 nM
3 | CC[C@H](C)NC(=O)O[C@@H]1CC[C@H](c2cc(NC(=O)Cc3cc(C)no3)n[nH]2)C1 [Example 32] | 35.7 nM | 0.36 nM
4 | CCCNC(=O)O[C@H]1CC[C@@H](c2cc(Nc3ccc4c(n3)CC[C@@H]4N(C)C)n[nH]2)C1 [Example 192, (1S,3R)-3-(3-{[(5S)-5-(dimethylamino)-6,7-dihydro-5H-cyclopenta[b]pyridin-2-yl]amino}-1H-pyrazol-5-yl)cyclopentyl propylcarbamate] | > 191 nM | 0.7 nM
5 | CC(C)(C)NC(=O)O[C@@H]1CC[C@H](c2cc(NC(=O)Cc3ccno3)n[nH]2)C1 [Example 108] | 38.8 nM | 0.15 nM
6 | CC[C@H](C)NC(=O)O[C@@H]1CC[C@H](c2cc(NC(=O)Cc3cnc4ncnn4c3)n[nH]2)C1 [Example 39] | 23.9 nM | 0.14 nM
7 | Cc1cnc(CC(=O)Nc2cc([C@H]3CC[C@@H](OC(=O)NC(C)(C)C)C3)[nH]n2)o1 [Example 11, (1R,3S)-3-(3-{[(5-methyl-1,3-oxazol-2-yl)acetyl]amino}-1H-pyrazol-5-yl)cyclopentyl tert-butylcarbamate] | 36.2 nM | 0.32 nM
8 | CC[C@H](C)NC(=O)O[C@@H]1CC[C@H](c2cc(NC(=O)Cc3cc(C)ccc3S(C)(=O)=O)n[nH]2)C1 [Example 371, (1R,3S)-3-[3-({[5-methyl-2-(methylsulfonyl)phenyl]acetyl}amino)-1H-pyrazol-5-yl]cyclopentyl (2S)-butan-2-ylcarbamate] | 161 nM | 0.32 nM
9 | CC[C@H](C)NC(=O)O[C@@H]1CC[C@H](c2cc(NC(=O)Cc3ncc(OC)s3)n[nH]2)C1 [Example 353, (1R,3S)-3-(3-{[(5-methoxy-1,3-thiazol-2-yl)acetyl]amino}-1H-pyrazol-5-yl)cyclopentyl (2S)-butan-2-ylcarbamate] | 29.5 nM | 0.5 nM
10 | COc1cnc(CC(=O)Nc2cc([C@H]3CC[C@@H](OC(=O)NC(C)(C)C)C3)[nH]n2)cn1 [Example 109] | 39.2 nM | 0.68 nM
11 | CCNC(=O)O[C@@H]1CC[C@H](c2cc(NC(=O)Cc3ccnc(OC)c3)n[nH]2)C1 [Example 232, (1R,3S)-3-(3-{[(2-methoxypyridin-4-yl)acetyl]amino}-1H-pyrazol-5-yl)cyclopentyl ethylcarbamate] | 34.1 nM | 1.54 nM
12 | CC[C@H](C)NC(=O)O[C@@H]1CC[C@H](c2cc(NC(=O)Cc3ccccc3)n[nH]2)C1 [Example 38] | 69.7 nM | 0.18 nM
13 | Cc1ccc(CC(=O)Nc2cc([C@@H]3CC[C@H](OC(=O)N[C@H]4CC[C@H](O)CC4)C3)[nH]n2)cn1 [Example 548, (1S,3R)-3-(3-{[(6-methylpyridin-3-yl)acetyl]amino}-1H-pyrazol-5-yl)cyclopentyl (trans-4-hydroxycyclohexyl)carbamate] | 2.1 nM | 0.39 nM
14 | COc1ccc(CC(=O)Nc2cc([C@@H]3CC[C@H](OC(=O)N[C@H]4CC[C@H](O)CC4)C3)[nH]n2)nc1 [Example 557, (1S,3R)-3-(3-{[(5-methoxypyridin-2-yl)acetyl]amino}-1H-pyrazol-5-yl)cyclopentyl (trans-4-hydroxycyclohexyl)carbamate] | 2.6 nM | 1.01 nM
15 | COc1ccc(S(C)(=O)=O)c(CC(=O)Nc2cc([C@H]3CC[C@@H](OC(=O)NC(C)(C)C)C3)[nH]n2)c1 [Example 319, (1R,3S)-3-[3-({[5-methoxy-2-(methylsulfonyl)phenyl]acetyl}amino)-1H-pyrazol-5-yl]cyclopentyl tert-butylcarbamate] | 123 nM | 0.39 nM
16 | CC[C@H](C)NC(=O)O[C@@H]1CC[C@H](c2cc(NC(=O)c3cc(COC)nn3C)n[nH]2)C1 [Example 14, (1R,3S)-3-[3-({[3-(methoxymethyl)-1-methyl-1H-pyrazol-5-yl]carbonyl}amino)-1H-pyrazol-5-yl]cyclopentyl (2S)-butan-2-ylcarbamate] | 294 nM | 0.27 nM
17 | CC[C@H](C)NC(=O)O[C@@H]1CC[C@H](c2cc(NC(=O)Cc3cnc(C(F)(F)F)cn3)n[nH]2)C1 [Example 363, (1R,3S)-3-[3-({[5-(trifluoromethyl)pyrazin-2-yl]acetyl}amino)-1H-pyrazol-5-yl]cyclopentyl (2S)-butan-2-ylcarbamate] | 52 nM | 0.35 nM
18 | CCN(C)C(=O)O[C@@H]1CC[C@H](c2cc(NC(=O)Cc3ccc(OC)cc3)n[nH]2)C1 [Example 240, (1R,3S)-3-(3-{[(4-methoxyphenyl)acetyl]amino}-1H-pyrazol-5-yl)cyclopentyl ethyl(methyl)carbamate] | 16.1 nM | 0.73 nM
19 | CCCNC(=O)O[C@H]1CC[C@@H](c2cc(NC(=O)Cc3cncs3)n[nH]2)C1 [Example 20] | 27.9 nM | 0.21 nM
20 | COc1ccc(CC(=O)Nc2cc([C@H]3CC[C@@H](OC(=O)NC4(C)CC4)C3)[nH]n2)nc1 [Example 433, (1R,3S)-3-(3-{[(5-methoxypyridin-2-yl)acetyl]amino}-1H-pyrazol-5-yl)cyclopentyl (1-methylcyclopropyl)carbamate] | 17.1 nM | 0.5 nM
21 | Cn1cc(CC(=O)Nc2cc([C@H]3CC[C@@H](OC(=O)NC4(C)CCC4)C3)[nH]n2)cn1 [Example 119] | 19.3 nM | 0.13 nM
22 | COCCn1nccc1C(=O)Nc1cc([C@H]2CC[C@@H](OC(=O)NC(C)(C)C)C2)[nH]n1 [Example 308, (1R,3S)-3-[3-({[1-(2-methoxyethyl)-1H-pyrazol-5-yl]carbonyl}amino)-1H-pyrazol-5-yl]cyclopentyl tert-butylcarbamate] | 89.1 nM | 0.3 nM

More lines, now with the values ahead:

Row | Ki (GSK3β (H350L)) | Ki [1] | Structure (SMILES)
23 | 6.34 nM | 0.47 nM | Cn1ccc(CC(=O)Nc2cc([C@H]3CC[C@@H](OC(=O)N4CCCC4(C)C)C3)[nH]n2)n1 [Example 639, (1R,35)-3-(3-{[(1-methyl-1H-pyrazol-3-yl)acetyl]amino}-1H-pyrazol-5-yl)cyclopentyl 2,2-dimethylpyrrolidine-1-carboxylate]
24 | 4.5 nM | 0.18 nM | O=C(Cc1cc(F)cc(F)c1)Nc1cc([C@@H]2CC[C@H](OC(=O)N[C@H]3CC[C@H](O)CC3)C2)[nH]n1 [Example 28]
25 | 8.01 nM | 0.45 nM | COc1cc(CC(=O)Nc2cc([C@H]3CC[C@@H](OC(=O)N4C[C@@H](O)[C@@H]4C)C3)[nH]n2)ccn1 [Example 612, (1R,3S)-3-(3-{[(2-methoxypyridin-4-yl)acetyl]amino}-1H-pyrazol-5-yl)cyclopentyl (2S,3R)-3-hydroxy-2-methylazetidine-1-carboxylate]
26 | 4.07 nM | 1.24 nM | COc1ccc(CC(=O)Nc2cc([C@@H]3CC[C@H](OC(=O)N[C@H]4CC[C@](C)(O)CC4)C3)[nH]n2)cc1 [Example 565, (1S,3R)-3-(3-{[(4-methoxyphenyl)acetyl]amino}-1H-pyrazol-5-yl)cyclopentyl (trans-4-hydroxy-4-methylcyclohexyl)carbamate]
27 | 10.4 nM | 0.1 nM | CC(C)NC(=O)O[C@@H]1CC[C@H](c2cc(NC(=O)Cc3ccc4c(cnn4C)c3)n[nH]2)C1 [Example 55]
28 | 13.5 nM | 0.54 nM | CCCNC(=O)O[C@@H]1CC[C@H](c2cc(NC(=O)Cc3cncs3)n[nH]2)C1 [Example 179, (1R,3S)-3-{3-[(1,3-thiazol-5-ylacetyl)amino]-1H-pyrazol-5-yl}cyclopentyl propylcarbamate]
29 | 10.6 nM | 0.4 nM | C[C@H]1CCCN1C(=O)O[C@@H]1CC[C@H](c2cc(NC(=O)Cc3cnco3)n[nH]2)C1 [Example 629, (1R,3S)-3-{3-[(1,3-oxazol-5-ylacetyl)amino]-1H-pyrazol-5-yl}cyclopentyl (2S)-2-methylpyrrolidine-1-carboxylate]
30 | 8.35 nM | 0.25 nM | Cc1cc(CC(=O)Nc2cc([C@H]3CC[C@@H](OC(=O)N4[C@@H](C)C[C@@H]4C)C3)[nH]n2)on1 [Example 150]
31 | 9.25 nM | 0.24 nM | CCCNC(=O)O[C@@H]1CC[C@H](c2cc(NC(=O)Cc3ccc4c(cnn4C)c3)n[nH]2)C1 [Example 54]
32 | 12.5 nM | 0.22 nM | CC[C@H](C)NC(=O)O[C@@H]1CC[C@H](c2cc(NC(=O)Cc3ccc(C)nc3)n[nH]2)C1 [Example 35]
33 | 8.58 nM | 1.44 nM | C[C@]1(O)CC[C@H](NC(=O)O[C@H]2CC[C@@H](c3cc(NC(=O)Cc4ccccc4)n[nH]3)C2)CC1 [Example 559, (1S,3R)-3-{3-[(phenylacetyl)amino]-1H-pyrazol-5-yl}cyclopentyl (trans-4-hydroxy-4-methylcyclohexyl)carbamate]
34 | 10.3 nM | 1.37 nM | Cc1cc(CC(=O)Nc2cc([C@H]3CC[C@@H](OC(=O)N4CCOC[C@@H]4C)C3)[nH]n2)on1 [Example 642, (1R,3S)-3-(3-{[(3-methyl-1,2-oxazol-5-yl)acetyl]amino}-1H-pyrazol-5-yl)cyclopentyl (3S)-3-methylmorpholine-4-carboxylate]
35 | 8.22 nM | 0.22 nM | Cn1ccc(CC(=O)Nc2cc([C@H]3CC[C@@H](OC(=O)N4CCCC4(C)C)C3)[nH]n2)n1 [Example 136]
36 | 2.28 nM | 1.08 nM | COc1ccc(CC(=O)Nc2cc([C@@H]3CC[C@H](OC(=O)N[C@H]4CC[C@](C)(O)CC4)C3)[nH]n2)cn1 [Example 571, (1S,3R)-3-(3-{[(6-methoxypyridin-3-yl)acetyl]amino}-1H-pyrazol-5-yl)cyclopentyl (trans-4-hydroxy-4-methylcyclohexyl)carbamate]
37 | 11.1 nM | 0.16 nM | Cc1ncc(CC(=O)Nc2cc([C@H]3CC[C@@H](OC(=O)NC(C)(C)C)C3)[nH]n2)s1 [Example 113]
